Consider two compounds from US12595269B2, “Morpholine-like monoamine releasers” (Solvonis Therapeutics Ireland Holdings Limited, priority 2022, dated 2026).

One data set addresses T1, CYP2B6 (Homo sapiens, UniProt P20813).
T1 construct: purchased Life Technologies P3028; host or cells: Baculosomes
T1 sequence (P20813 1-491): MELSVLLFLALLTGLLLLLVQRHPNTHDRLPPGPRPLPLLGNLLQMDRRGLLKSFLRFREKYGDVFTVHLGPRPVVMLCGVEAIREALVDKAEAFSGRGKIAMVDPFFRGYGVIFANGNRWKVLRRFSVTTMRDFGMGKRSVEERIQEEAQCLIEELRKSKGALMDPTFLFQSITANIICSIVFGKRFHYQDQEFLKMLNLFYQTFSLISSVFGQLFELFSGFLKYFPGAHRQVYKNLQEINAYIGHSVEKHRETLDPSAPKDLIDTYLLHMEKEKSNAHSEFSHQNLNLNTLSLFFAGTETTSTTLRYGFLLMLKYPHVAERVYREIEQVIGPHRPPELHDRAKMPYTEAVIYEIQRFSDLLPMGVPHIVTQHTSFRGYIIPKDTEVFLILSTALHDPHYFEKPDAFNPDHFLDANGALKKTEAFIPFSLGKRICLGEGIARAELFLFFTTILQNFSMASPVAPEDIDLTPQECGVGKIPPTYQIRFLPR
Kind of data set: CYP450 inhibition, Vivid CYP2B6 Baculosomes, BOMCC substrate. The data set is classed as in vitro ADME. How it is done: (§1) Methods and Procedure: The study was performed in agreement with previously described procedures to assure data integrity and adherence to GLP standards. Briefly, recombinant human CYP450 isoenzymes were used to metabolize pro-fluorescent probe substrates to fluorescent products. IC50 values determined from the effect of test compounds on the metabolism of these probe substrates were then used to determine inhibitory potency against CYP450 isoforms.
(§2) The test system was based on a three-step procedure with a “mix and read” format, where PGP-432,TI reaction and reading were performed at 37° C. […] Fluorescence was measured in kinetic mode (1 read/minutes for 10 minutes), and the fluorescence rate was calculated. […]
Next, 10 μL/well from the compound plate was added and incubated for 10 minutes at 37° C. on a plate shaker, while a mixture of Vivid Substrate and Vivid NADP+ in Vivid CYP450 Reaction Buffer was prepared. The reaction was initiated by adding 10 μL/well of the Vivid Substrate and NADP+ mixture, before transferring the plate into the fluorescent plate reader (immediately, within 2 minutes), and fluorescence was monitored every minute for 10 minutes according to the specific protocol. Regarding data analysis, the inhibition effect is expressed as a percentage. […]

A further data set deals with T2, CYP2D6 (Homo sapiens, UniProt P10635).
T2 construct: host or cells: recombinant microsomes
Kind of data set: CYP450 inhibition, fluorescent probe, recombinant microsomes: CYP2D6. In kind it is in vitro ADME. How it is done:
as §1, §2
Microsomes were added to the buffer prior to the substrate addition. […] For fluorescence measurement, 10 μL/well of the test compounds were transferred from the compound plate to the assay plate using Biomek FX and the appropriate protocol. […]
10 μL/well of the cofactor was then added to the assay plate using the Multidrop before placing the assay plate in the plate reader EnVision to measure fluorescence. […]
Next, 10 μL/well from the compound plate was added and incubated for 10 minutes at 37° C. on a plate shaker, while a mixture of Vivid Substrate and Vivid NADP+ in Vivid CYP450 Reaction Buffer was prepared. […] Regarding data analysis, the inhibition effect is expressed as a percentage. […]

Like-named read-outs stand apart in the source and are kept apart here.

T2 sequence (P10635 whole entry): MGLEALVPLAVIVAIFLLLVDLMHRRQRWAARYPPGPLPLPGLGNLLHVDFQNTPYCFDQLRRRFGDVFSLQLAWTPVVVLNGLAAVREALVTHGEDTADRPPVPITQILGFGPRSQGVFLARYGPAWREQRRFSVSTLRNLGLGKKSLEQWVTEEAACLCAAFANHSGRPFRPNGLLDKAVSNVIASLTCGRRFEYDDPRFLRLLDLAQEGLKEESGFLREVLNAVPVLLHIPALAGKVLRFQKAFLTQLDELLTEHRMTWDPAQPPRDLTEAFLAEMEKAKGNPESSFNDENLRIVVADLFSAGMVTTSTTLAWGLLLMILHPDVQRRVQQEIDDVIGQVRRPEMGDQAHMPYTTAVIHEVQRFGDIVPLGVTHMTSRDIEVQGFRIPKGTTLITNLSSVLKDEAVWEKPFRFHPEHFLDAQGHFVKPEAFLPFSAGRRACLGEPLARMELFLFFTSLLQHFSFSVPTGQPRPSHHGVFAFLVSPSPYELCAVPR

Consider `CNC(C)Cc1ccc2c(c1)OCO2` (stereo not shown) [MDMA, reference compound], for which the IC50 at 10 min at CYP2B6 (human, recombinant CYP2B6 Baculosomes, pH 8, probe Vivid BOMCC) came to 50 µM. Further, the IC50 at CYP2D6 was 1.6 µM.

On to `Clc1ccc(C23CNC(CO2)C3)cc1Cl` (stereo not shown) [522A, 1-(3,4-dichlorophenyl)-2-oxa-5-azabicyclo[2.2.1]heptane], for which the IC50 worked out at 41 µM at CYP2B6 (recombinant human CYP2B6) and 2.87 µM on CYP2D6 (recombinant human CYP2D6, read-out: CYP450 Inhibition (IC50), CYP2D6).

As a reminder, the IC50 is the concentration that inhibits the measured activity by half.
